The subject of data set [1] is HT29 human colon carcinoma cell line. As to the kind of experiment: MTT growth inhibition assay, single agents and fixed-ratio combinations with elsamitrucin (Chou-Talalay, CalcuSyn), HT29. It counts as cell-based.
In data set [2] the test system is SKMES human non-small cell lung carcinoma cell line. In words: MTT growth inhibition assay, single agents and fixed-ratio combinations with elsamitrucin (Chou-Talalay, CalcuSyn), SKMES. Format: cell-based.
Data set [3] has as its system Daudi human lymphoma cell line. As to the kind of experiment: MTT growth inhibition assay, single agents and fixed-ratio combinations with elsamitrucin (Chou-Talalay, CalcuSyn), Daudi. It counts as cell-based.
The conditions of data set [4]: i.p., qd x5; cited from earlier work.

Structures are written as SMILES. “And” between values parts separate entries of the source, which are not always exact repeats. Equal values may be shown once. Read-outs that look alike come from different tables or passages of the source.

With `N.N.[Cl][Pt][Cl]` [Cisplatin, cisplatin], the “decrease of Dm in the combination” value is 38% in data set [1] (HT29, in combination with elsamitrucin versus single agent); 47% in data set [2] (SKMES, in combination with elsamitrucin versus single agent); 59% in data set [3] (Daudi, in combination with elsamitrucin versus single agent). The IC50 in data set [1] (HT29, single agent on the same plate as the combination, read-out: Dm Value, Individually, Second Agent) was 2.33 µM and 1.75 µM; in data set [1] (SPA-01 (HT29-e21), single agent, dilution 1:3, read-out: Prism IC50), 1.85 µM; in data set [1] (SPA-04 (HT29-e22), single agent, dilution 1:1.5, read-out: CalcuSyn Dm), 1.93 µM; in data set [1] (SPA-04 (HT29-e22), single agent, dilution 1:1.5, read-out: Prism IC50), 1.86 µM; in data set [1] (average of preliminary single-agent experiments, HT29, read-out: Average IC50, Dm value) it was 1.88 µM; in data set [2] (SKMES growth inhibition, second agent alone, one value per plate (Experiment ID), read-out: Dm Value (95% Confidence Interval), Individually, Second Agent) it was 1.67 µM. Besides, the IC50 in data set [2] (SKMES, single agent on the same plate as the combination, read-out: Dm Value, Individually, Second Agent) was 1.67 µM; in data set [2] (SPA-02 (SKMES-e22), single agent, dilution 1:3, read-out: Prism IC50) it was 0.675 µM; in data set [2] (SPA-03 (SKMES-e23), single agent, dilution 1:1.5, read-out: CalcuSyn Dm), 1.19 µM; in data set [2] (SPA-03 (SKMES-e23), single agent, dilution 1:1.5, read-out: Prism IC50) it was 1.14 µM; in data set [2] (average of preliminary single-agent experiments, SKMES, read-out: Average IC50, Dm value), 1 µM; in data set [3] (Daudi growth inhibition, second agent alone, one value per plate, Table 8 (Supplement), read-out: Dm Value (95% Confidence Interval), Individually, Second Agent), 0.494 µM. Further, the IC50 in data set [3] (Daudi growth inhibition, second agent alone, Table 8, read-out: Dm Value (95% Confidence Interval), Individually, Second Agent) was 0.494 µM; in data set [3] (Daudi, read-out: approximate Dm values for the second drugs as single agents) it was around 0.49 µM; in data set [3] (SPA-05 (Daudi-e01), single agent, dilution 1:3, read-out: Prism IC50), 0.367 µM; in data set [3] (SPA-08 (Daudi-e02), single agent, dilution 1:1.5, read-out: CalcuSyn Dm), 0.343 µM; in data set [3] (SPA-08 (Daudi-e02), single agent, dilution 1:1.5, read-out: Prism IC50), 0.344 µM; in data set [3] (average of preliminary single-agent experiments, Daudi, read-out: Average IC50, Dm value), 0.351 µM. Moreover, the “MTD revealed in previous studies” value in data set [4] is 2.7 mg/kg.

Values taken from patent publication US20080181971A1, “Combination Cancer Treatments Comprising Elsamitrucin and Other Agents” (priority 2007, published 2008).
